The values that follow come from ChEMBL document CHEMBL5143589, “Drugging the Next Undruggable KRAS Allele-Gly12Asp” (J Med Chem, 2022).

The structures appear in SMILES notation. Some results are limits rather than exact numbers.

Experiment [1] in a line: Inhibition of KRAS […] mutant (unknown origin) by HTRF assay. More on the design: species or system Homo sapiens. On the technique in general: Time-resolved FRET reads energy transfer from a long-lived donor to a nearby acceptor.
A short description of experiment [2]: Binding affinity to KRAS […] mutant (unknown origin) assessed as dissociation constant. Also noted: species or system Homo sapiens.
Experiment [3] relates to AGS. Kind of experiment: Antiproliferative activity against human AGS cells assessed as reduction of cell viability. The class given is functional, cell-based.
In experiment [4] the test system is MKN-1. Kind of experiment: Antiproliferative activity against human MKN-1 cells assessed as reduction of cell viability. The class given is functional, cell-based.
Experiment [5] can be described thus: Inhibition of ERK phosphorylation in human AGS cells. The class given is cell-based.
The target of experiment [6] is T1, GTPase KRas (Homo sapiens, UniProt P01116). Kind of experiment: Binding affinity to KRAS (unknown origin) assessed as inhibition constant.
Target sequence in this assay (P01116 whole entry): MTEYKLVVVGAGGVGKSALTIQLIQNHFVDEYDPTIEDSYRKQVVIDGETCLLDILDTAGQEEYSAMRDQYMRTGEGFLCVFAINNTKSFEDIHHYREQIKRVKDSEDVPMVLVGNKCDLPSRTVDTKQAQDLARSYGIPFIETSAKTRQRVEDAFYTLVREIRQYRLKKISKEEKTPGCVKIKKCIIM
Experiment [7] addresses T1, GTPase KRas.
Target sequence in this assay (P01116 whole entry, looked up): as the sequence (P01116 whole entry) above
Description: Binding affinity to KRAS (unknown origin) assessed as inactivation constant

Turning to `C#Cc1c(F)ccc2cccc(-c3ncc4c(N5CC6CCC(C5)N6)nc(OCC56CCCN5CCC6)nc4c3F)c12`, the IC50 in experiment [1] was no more than 2 nM.
In the case of `CN1CCC[C@H]1COc1nc(N2CCNCC2)c2cnc(-c3cccc4cccc(Cl)c34)c(F)c2n1`, the Kd in experiment [2] worked out at 3500 nM.
Turning to `CN1CCC[C@H]1COc1nc(N2CC3CCC(C2)N3)c2cnc(-c3cc(O)cc4ccccc34)c(F)c2n1`, in experiment [1], the IC50 was 5 nM. In experiment [2], the Kd came out at 0.8 nM.
Take `Oc1cc(-c2ncc3c(N4CC5CCC(C4)N5)nc(OC[C@@]45CCCN4C[C@H](F)C5)nc3c2F)c2ccccc2c1`: in experiment [1], the IC50 was no more than 2 nM.
Consider `C#Cc1c(F)ccc2cc(O)cc(-c3ncc4c(N5CC6CCC(C5)N6)nc(OC[C@@]56CCCN5C[C@H](F)C6)nc4c3F)c12` [MRTX-1133], for which the IC50 in experiment [3] is 6 nM; in experiment [4], greater than 3000 nM; in experiment [5], 2 nM. For the same compound, the Kd in experiment [2] is 0.0002 nM.
As to `C=CC(=O)N1CCN(c2ncnc3c(F)c(-c4c(O)cccc4F)c(Cl)cc23)CC1`, in experiment [6], the Ki was 31000 nM. The same compound displayed a Kinact in experiment [7] of 0.03 s⁻¹.

What is called IC50 is the concentration that gives 50% inhibition. As a reminder, the Kd is the equilibrium constant for the complex coming apart. As a reminder, the Ki is the equilibrium dissociation constant of an inhibitor or competing ligand from its target.
